How the values were obtained:
Format in all cases: in vivo
[1] = system: Echinochloa crus-galli var. formosensis; test: Test Example 1: herbicidal effect test by soil application in paddy rice; conditions: Echinochloa crus-galli, soil, 336 h; 120 g active ingredient per 10 ares; applied immediately after sowing, flooded pots; 14 days after application; read-out: weed inhibition rate
How it was run: (§1)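 Weeds sown 0–1 cm deep (30 seeds each) into fertilized, puddled paddy soil in Wagner pots. Pots are flooded immediately, water held near 3 cm, and the diluted emulsifiable concentrate is dripped in at once, delivering 120 g active ingredient per 10 ares under glass-greenhouse management.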

Scirpus juncoides [2] = test: as above; conditions: Schoenoplectiella juncoides, soil, 336 h; 120 g active ingredient per 10 ares; applied immediately after sowing, flooded pots; 14 days after application; read-out: weed inhibition rate
How it was run: as §1

Digitaria ciliaris [3] = test: Test Example 3: herbicidal effect test by soil application in upland field; conditions: Digitaria ciliaris, 120 g per 10 ares, sprayed one day after sowing, 14 days after application, read-out: weed inhibition rate
How it was run: (§2)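 Pre-emergence test: seeds mixed into top 1 cm of alluvial loam upland soil in pots; emulsifiable concentrate diluted in water sprayed on soil one day after sowing at 100 L/10 a, 120 g a.i./10 a. Weed inhibition rate (%) scored at 14 days, in duplicate.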

Echinochloa crus-galli = test: as above; conditions: Echinochloa crus-galli, 120 g per 10 ares, sprayed one day after sowing, 14 days after application, read-out: weed inhibition rate
How it was run: as §2

Digitaria ciliaris [4] = test: Test Example 4: herbicidal effect test by stem and leaf treatment in upland field; conditions: Digitaria ciliaris; 120 g per 10 ares; sprayed seven days after sowing, upland soil; 14 days after application; read-out: weed inhibition rate
Monochoria vaginalis [5] = test: Test Example 5: herbicidal effect test by soil application in paddy rice (low dose); conditions: Pontederia vaginalis, 336 h, 7.5 g per 10 ares, applied immediately after sowing, flooded pots, 14 days after application, read-out: weed inhibition rate
Procedure: (§3) The present test was conducted in duplicate for each chemical concentration group, and the weed inhibition rate (%) was determined 14 days after chemical application using the following formula (Math. 1). [formula]
(§4) Wagner pots with an area of […] were filled with paddy soil, followed by addition of water and incorporation of chemical fertilizer (N:P:K = 16:16:16), after which puddling was performed. After that, seeds of Echinochloa crus-galli var. formosensis, broad-leaved weeds (Monochoria vaginalis), and Scirpus juncoides were sown at a depth of 0 cm to 1 cm, 30 seeds each. Immediately after sowing, the pots were flooded and a water depth of approximately 3 cm was maintained. Subsequent management was conducted in a glass greenhouse. Immediately thereafter, an emulsifiable concentrate prepared according to Formulation Example 5 using the compound shown below was diluted with water, and a specified amount of the diluted solution was applied by dropper. The amount of the active ingredient to be applied was equivalent to 7.5 g per 10 ares.
(§5) The present test was conducted in duplicate for each chemical concentration group, and the herbicidal effect was evaluated 14 days after chemical application using the same criteria as in Test Example 1.

Monochoria vaginalis [6] = test: Test Example 6: herbicidal effect test by application during growth period of paddy rice (low dose); conditions: Pontederia vaginalis; 7.5 g per 10 ares; applied seven days after sowing, flooded pots; 14 days after application; read-out: weed inhibition rate
How it was run: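 Paddy-soil pots, flooded ~3 cm after sowing weed seeds at 0-1 cm depth, greenhouse-grown. Seven days after sowing, diluted emulsifiable concentrate applied by dropper at 7.5 g active ingredient per 10 ares. Weed inhibition rate (%) scored 14 days after application, in duplicate.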

Scirpus juncoides [7] = test: Test Example 5: herbicidal effect test by soil application in paddy rice (low dose); conditions: Schoenoplectiella juncoides, 336 h, 7.5 g per 10 ares, applied immediately after sowing, flooded pots, 14 days after application, read-out: weed inhibition rate
Procedure: as §3, §4, §5

CC(C)[C@]12C[C@@H](OCc3ccccc3F)[C@](C)(C[C@@H]1OS(=O)(=O)C(F)(F)F)O2 [1-525, (1R,2S,4S,5R)-5-((2-fluorobenzyl)oxy)-1-isopropyl-4-methyl-7-oxabicyclo[2.2.1]heptan-2-yl trifluoromethanesulfonate]
≥ 80%: pest or weed control at 1200 g/ha [1] | pest or weed control at 1200 g/ha (Scirpus juncoides [2]) | inhibition at 1200 g/ha (Digitaria ciliaris [3]) | inhibition at 1200 g/ha (Echinochloa crus-galli) | inhibition at 1200 g/ha (Digitaria ciliaris [4])

Cc1cccc(CO[C@@H]2C[C@]3(C(C)C)O[C@@]2(C)C[C@@H]3Br)c1 [1-680, (1S,2R,4R,5S)-5-bromo-1-methyl-2-[(3-methylphenyl)methoxy]-4-isopropyl-7-oxabicyclo[2.2.1]heptane]
≥ 80%: pest or weed control at 1200 g/ha [1] | pest or weed control at 1200 g/ha (Scirpus juncoides [2]) | inhibition at 1200 g/ha (Digitaria ciliaris [3]) | inhibition at 1200 g/ha (Echinochloa crus-galli) | inhibition at 1200 g/ha (Digitaria ciliaris [4])

CC(C)[C@]12C[C@@H](OCc3cccc(F)c3)[C@](C)(C[C@@H]1Br)O2 [1-690, (1S,2R,4R,5S)-5-bromo-2-[(3-fluorophenyl)methoxy]-1-methyl-4-isopropyl-7-oxabicyclo[2.2.1]heptane]
≥ 80%: pest or weed control at 1200 g/ha [1] | pest or weed control at 1200 g/ha (Scirpus juncoides [2]) | inhibition at 1200 g/ha (Digitaria ciliaris [3]) | inhibition at 1200 g/ha (Echinochloa crus-galli) | inhibition at 1200 g/ha (Digitaria ciliaris [4]) | inhibition at 75 g/ha (Monochoria vaginalis [5]) | inhibition at 75 g/ha (Monochoria vaginalis [6])

CC(C)[C@]12C[C@@H](OCc3cccc(Cl)c3)[C@](C)(C[C@@H]1Br)O2 [1-692, (1S,2R,4R,5S)-5-bromo-2-[(3-chlorophenyl)methoxy]-1-methyl-4-isopropyl-7-oxabicyclo[2.2.1]heptane]
≥ 80%: pest or weed control at 1200 g/ha [1] | pest or weed control at 1200 g/ha (Scirpus juncoides [2]) | inhibition at 1200 g/ha (Digitaria ciliaris [3]) | inhibition at 1200 g/ha (Echinochloa crus-galli) | inhibition at 1200 g/ha (Digitaria ciliaris [4]) | inhibition at 75 g/ha (Monochoria vaginalis [5]) | inhibition at 75 g/ha (Scirpus juncoides [7])

CC(C)[C@]12C[C@@H](OCc3ccc(Cl)cc3)[C@](C)(C[C@@H]1Br)O2 [1-693, (1S,2R,4R,5S)-5-bromo-2-[(4-chlorophenyl)methoxy]-1-methyl-4-isopropyl-7-oxabicyclo[2.2.1]heptane]
≥ 80%: pest or weed control at 1200 g/ha [1] | pest or weed control at 1200 g/ha (Scirpus juncoides [2]) | inhibition at 1200 g/ha (Digitaria ciliaris [3]) | inhibition at 1200 g/ha (Echinochloa crus-galli) | inhibition at 1200 g/ha (Digitaria ciliaris [4])

CC(C)[C@]12C[C@@H](OCc3c(Cl)cccc3Cl)[C@](C)(C[C@@H]1Br)O2 [1-712, (1S,2R,4R,5S)-5-bromo-2-[(2,6-dichlorophenyl)methoxy]-1-methyl-4-isopropyl-7-oxabicyclo[2.2.1]heptane]
≥ 80%: pest or weed control at 1200 g/ha [1] | pest or weed control at 1200 g/ha (Scirpus juncoides [2]) | inhibition at 1200 g/ha (Digitaria ciliaris [3]) | inhibition at 1200 g/ha (Echinochloa crus-galli) | inhibition at 1200 g/ha (Digitaria ciliaris [4]) | inhibition at 75 g/ha (Monochoria vaginalis [5]) | inhibition at 75 g/ha (Monochoria vaginalis [6])

CC(C)[C@]12C[C@@H](OCc3ccc(Cl)cc3Cl)[C@](C)(C[C@@H]1Br)O2 [1-717, (1S,2R,4R,5S)-5-bromo-2-[(2,4-dichlorophenyl)methoxy]-1-methyl-4-isopropyl-7-oxabicyclo[2.2.1]heptane]
≥ 80%: pest or weed control at 1200 g/ha [1] | pest or weed control at 1200 g/ha (Scirpus juncoides [2]) | inhibition at 1200 g/ha (Digitaria ciliaris [3]) | inhibition at 1200 g/ha (Echinochloa crus-galli) | inhibition at 1200 g/ha (Digitaria ciliaris [4])

CC(C)CC1C[C@]2(C)O[C@@]1(C(C)C)C[C@H]2OCc1ccccc1F (stereo partly drawn) [1-915, (1S,2R,4R)-2-((2-fluorobenzyl)oxy)-5-isobutyl-4-isopropyl-1-methyl-7-oxabicyclo[2.2.1]heptane]
≥ 80%: pest or weed control at 1200 g/ha [1] | pest or weed control at 1200 g/ha (Scirpus juncoides [2]) | inhibition at 1200 g/ha (Digitaria ciliaris [3]) | inhibition at 1200 g/ha (Echinochloa crus-galli) | inhibition at 1200 g/ha (Digitaria ciliaris [4]) | inhibition at 75 g/ha (Scirpus juncoides [7])

CC(C)[C@]12C[C@@H](OCc3c(F)cccc3Br)[C@](C)(C[C@@H]1Br)O2 [1-1600, (1S,2R,4R,5S)-5-bromo-2-[(2-bromo-6-fluorophenyl)methoxy]-1-methyl-4-isopropyl-7-oxabicyclo[2.2.1]heptane]
≥ 80%: pest or weed control at 1200 g/ha [1] | pest or weed control at 1200 g/ha (Scirpus juncoides [2]) | inhibition at 1200 g/ha (Digitaria ciliaris [3]) | inhibition at 1200 g/ha (Echinochloa crus-galli) | inhibition at 1200 g/ha (Digitaria ciliaris [4]) | inhibition at 75 g/ha (Monochoria vaginalis [6])

CC(C)[C@]12C[C@@H](OCc3ccccc3F)[C@](C)(C[C@@H]1OCC1CC1)O2 [1-1603, (1S,2R,4R,5S)-5-(cyclopropylmethoxy)-2-[(2-fluorophenyl)methoxy]-1-methyl-4-isopropyl-7-oxabicyclo[2.2.1]heptane]
≥ 80%: pest or weed control at 1200 g/ha [1] | pest or weed control at 1200 g/ha (Scirpus juncoides [2]) | inhibition at 1200 g/ha (Digitaria ciliaris [3]) | inhibition at 1200 g/ha (Echinochloa crus-galli) | inhibition at 1200 g/ha (Digitaria ciliaris [4]) | inhibition at 75 g/ha (Monochoria vaginalis [5]) | inhibition at 75 g/ha (Scirpus juncoides [7])

CC(C)[C@]12C[C@@H](OCc3cccc(F)c3F)[C@](C)(CC1=O)O2 [2-14, (1R,4S,5R)-5-((2,3-difluorobenzyl)oxy)-1-isopropyl-4-methyl-7-oxabicyclo[2.2.1]heptan-2-one]
≥ 80%: pest or weed control at 1200 g/ha [1] | pest or weed control at 1200 g/ha (Scirpus juncoides [2]) | inhibition at 1200 g/ha (Digitaria ciliaris [3]) | inhibition at 1200 g/ha (Echinochloa crus-galli) | inhibition at 1200 g/ha (Digitaria ciliaris [4]) | inhibition at 75 g/ha (Monochoria vaginalis [5]) | inhibition at 75 g/ha (Scirpus juncoides [7])

CC(C)[C@]12C[C@@H](OCc3cc(F)ccc3F)[C@](C)(CC1=O)O2 [2-18, (1R,4S,5R)-5-((2,5-difluorobenzyl)oxy)-1-isopropyl-4-methyl-7-oxabicyclo[2.2.1]heptan-2-one]
≥ 80%: pest or weed control at 1200 g/ha [1] | pest or weed control at 1200 g/ha (Scirpus juncoides [2]) | inhibition at 1200 g/ha (Digitaria ciliaris [3]) | inhibition at 1200 g/ha (Echinochloa crus-galli) | inhibition at 1200 g/ha (Digitaria ciliaris [4])

CC(C)[C@]12C[C@@H](OCc3c(Cl)cccc3Cl)[C@](C)(CC1=O)O2 [2-26, (1R,4S,5R)-5-((2,6-dichlorobenzyl)oxy)-1-isopropyl-4-methyl-7-oxabicyclo[2.2.1]heptan-2-one]
≥ 80%: pest or weed control at 1200 g/ha [1] | pest or weed control at 1200 g/ha (Scirpus juncoides [2]) | inhibition at 1200 g/ha (Digitaria ciliaris [3]) | inhibition at 1200 g/ha (Echinochloa crus-galli) | inhibition at 1200 g/ha (Digitaria ciliaris [4])

Cc1cccc(C)c1CO[C@@H]1C[C@@]2(C(C)C)C=C[C@]1(C)O2 [3-3, (1R,4S,5R)-5-[(2,6-dimethylphenyl)methoxy]-4-methyl-1-isopropyl-7-oxabicyclo[2.2.1]hept-2-ene]
≥ 80%: pest or weed control at 1200 g/ha [1] | pest or weed control at 1200 g/ha (Scirpus juncoides [2]) | inhibition at 1200 g/ha (Digitaria ciliaris [3]) | inhibition at 1200 g/ha (Echinochloa crus-galli) | inhibition at 1200 g/ha (Digitaria ciliaris [4]) | inhibition at 75 g/ha (Monochoria vaginalis [5]) | inhibition at 75 g/ha (Scirpus juncoides [7])
